≈ marks a conversion by molar mass, not a printed value. Structures can show the parent of a compound that is named as a salt. Where two headings read alike, the source gives them in different places.
What was measured:
Format in all cases: cell-based
[1] = test system: clinically isolated Staphylococcus epidermidis; test: In vitro antibacterial activity against clinical isolates, Experiment 2; conditions: Staphylococcus epidermidis
How it was run: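 Clinical isolates collected Nov. 1988 to Jun. 1989 were precultured in sensitivity test broth. MIC was determined on sensitivity test agar. Compound standard solution was 1000 μg/ml (stock) in sterilized distilled water.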

[2] = test system: Pseudomonas aeruginosa NCTC 10490; test: MIC, Experiment 1; conditions: NCTC10490, P. aeruginosa NCTC 10490, Gram -, read-out: Min. inhib. concentr. (MIC)
How it was run: (§1)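 MIC was determined by the Japan Society of Chemotherapy agar dilution method, working from 1000 μg/ml standard solutions (DMSO or water stocks). S. pneumoniae was precultured in brain heart infusion broth and tested on heart infusion agar with 5% defibrinated horse blood. Other strains used sensitivity test broth and sensitivity test agar.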

[3] = test system: Staphylococcus aureus FDA 243; test: MIC, Experiment 1; conditions: FDA243, S. aureus FDA 243, Gram +, read-out: Min. inhib. concentr. (MIC)
How it was run: (§2)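 Stock solutions (5000 μg/ml, in DMSO or water) were diluted to 1000 μg/ml working standards. MICs were measured per the Japan Society of Chemotherapy procedure, with media matched to each organism: blood-supplemented heart infusion agar for S. pneumoniae and sensitivity test agar for the remaining strains.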

[4] = test system: Staphylococcus aureus ATCC 9144; test: MIC, Experiment 1; conditions: ATCC9144, S. aureus ATCC 9144, Gram +, read-out: Min. inhib. concentr. (MIC)
How it was run: as §2

[5] = test system: Bacillus cereus IAM 1029; test: MIC, Experiment 1; conditions: IAM1029, B. cereus IAM 1029, Gram +, read-out: Min. inhib. concentr. (MIC)
How it was run: as §2

[6] = test system: Staphylococcus aureus IID 803; test: MIC, Experiment 1; conditions: IID803, S. aureus IID 803, Gram +, read-out: Min. inhib. concentr. (MIC)
How it was run: as §2

[7] = test system: Acinetobacter calcoaceticus Ac 54; test: MIC, Experiment 1; conditions: AC54, A. calcoaceticus Ac 54, Gram -, read-out: Min. inhib. concentr. (MIC)
How it was run: as §1

[8] = test system: Staphylococcus aureus Cowan I (IID 975); test: MIC, Experiment 1; conditions: IID975, S. aureus Cowan I (IID 975), Gram +, read-out: Min. inhib. concentr. (MIC)
How it was run: as §2

[9] = test system: Klebsiella pneumoniae PCI-602; test: MIC, Experiment 1; conditions: PCI602, K. pneumoniae PCI-602, Gram -, read-out: Min. inhib. concentr. (MIC)
How it was run: as §1

[10] = test system: Escherichia coli NIHJ JC-2; test: MIC, Experiment 1; conditions: NIHJJC2, E. coli NIHJ JC-2, Gram -, read-out: Min. inhib. concentr. (MIC)
How it was run: as §1

[11] = test system: Staphylococcus aureus MS-353; test: MIC, Experiment 1; conditions: MS353, S. aureus MS-353, Gram +, read-out: Min. inhib. concentr. (MIC)
How it was run: as §2

[12] = test system: Enterobacter cloacae 963; test: MIC, Experiment 1; conditions: E. cloacae 963, Gram -, read-out: Min. inhib. concentr. (MIC)
How it was run: as §1

[13] = test system: Staphylococcus aureus FDA 209P JC-1; test: MIC, Experiment 1; conditions: FDA209P, S. aureus FDA 209P JC-1, Gram +, read-out: Min. inhib. concentr. (MIC)
How it was run: as §2

[14] = test system: Streptococcus pneumoniae IID 552; test: MIC, Experiment 1; conditions: IID552, S. pneumoniae IID 552, Gram +, agar with 5% defibrinated horse blood, read-out: Min. inhib. concentr. (MIC)
How it was run: as §2

[15] = test system: Streptococcus pyogenes Su; test: MIC, Experiment 1; conditions: S. pyogenes Su, Gram +, agar with 5% defibrinated horse blood, read-out: Min. inhib. concentr. (MIC)
How it was run: (§3)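 Stocks: 5000 μg/ml in DMSO or sterile distilled water; standard: 1000 μg/ml after water dilution. Method: Japan Society of Chemotherapy.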

[16] = test system: Bacillus subtilis ATCC 6633; test: MIC, Experiment 1; conditions: ATCC6633, B. subtilis ATCC 6633, Gram +, read-out: Min. inhib. concentr. (MIC)
How it was run: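 Following the Japan Society of Chemotherapy standard, compounds were diluted in water to 1000 μg/ml standard solutions and tested on agar plates. Sensitivity test broth and agar served the staphylococcal and Bacillus strains. Pneumococci were grown in brain heart infusion broth before testing on heart infusion agar with 5% horse blood.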

[17] = test system: Streptococcus pyogenes Cook; test: MIC, Experiment 1; conditions: S. pyogenes Cook, Gram +, agar with 5% defibrinated horse blood, read-out: Min. inhib. concentr. (MIC)
How it was run: as §3

[18] = test system: Streptococcus pyogenes Sv; test: MIC, Experiment 1; conditions: S. pyogenes Sv, Gram +, agar with 5% defibrinated horse blood, read-out: Min. inhib. concentr. (MIC)
How it was run: as §3

[19] = test system: Proteus mirabilis IFO 3849; test: MIC, Experiment 1; conditions: IFO3849, P. mirabilis IFO 3849, Gram -, read-out: Min. inhib. concentr. (MIC)
How it was run: as §1

[20] = test system: Streptococcus pneumoniae IID 554; test: MIC, Experiment 1; conditions: IID554, S. pneumoniae IID 554, Gram +, agar with 5% defibrinated horse blood, read-out: Min. inhib. concentr. (MIC)
How it was run: as §2

[21] = test system: Staphylococcus aureus Terajima (IID 670); test: MIC, Experiment 1; conditions: IID670, S. aureus Terajima (IID 670), Gram +, read-out: Min. inhib. concentr. (MIC)
How it was run: as §2

[22] = test system: Micrococcus luteus ATCC 9341; test: MIC, Experiment 1; conditions: ATCC9341, M. luteus ATCC 9341, Gram +, read-out: Min. inhib. concentr. (MIC)
How it was run: as §1

[23] = 25 clinical strains S. epidermidis
[24] = 25 clinical strains S. epidermidis, 50% of strains, read-out: MIC50

| SMILES | MIC [1, 23] | MIC [2] | MIC [3] | MIC [4] | MIC [5] | MIC [6] | MIC [7] | MIC [8] | MIC [9] | MIC [10] | MIC [11] | MIC [12] | MIC [13] | MIC [14] | MIC [15] | MIC [16] | MIC [17] | MIC [18] | MIC [19] | MIC [20] | further results |
| --- | --- | --- | --- | --- | --- | --- | --- | --- | --- | --- | --- | --- | --- | --- | --- | --- | --- | --- | --- | --- | --- |
| CN1Cc2csc3c(C(=O)O)c(=O)c4cc(F)c(N5CCOC(CO)C5)c1c4n23 (stereo not drawn) [Compound (B), 9,1-(Methylimino)methano-7-fluoro-8-(2-hydroxymethylmorpholino)-5-oxo-5H-thiazolo[3,2-a]quinoline-4-carboxylic acid] | 0.006 to 0.78 µg/mL (≈ 0.0143 to 1.86 µM) | 0.39 µg/mL (≈ 0.93 µM) | ≤ 0.006 µg/mL | ≤ 0.006 µg/mL | 0.025 µg/mL (≈ 0.0596 µM) | 0.013 µg/mL (≈ 0.031 µM) | ≤ 0.006 µg/mL | 0.013 µg/mL (≈ 0.031 µM) | ≤ 0.006 µg/mL | 0.1 µg/mL (≈ 0.238 µM) | 0.025 µg/mL (≈ 0.0596 µM) | 0.2 µg/mL (≈ 0.477 µM) | 0.013 µg/mL (≈ 0.031 µM) | 0.025 µg/mL (≈ 0.0596 µM) | 0.025 µg/mL (≈ 0.0596 µM) | ≤ 0.006 µg/mL | 0.025 µg/mL (≈ 0.0596 µM) | 0.05 µg/mL (≈ 0.119 µM) | 0.39 µg/mL (≈ 0.93 µM) | 0.05 µg/mL (≈ 0.119 µM) | MIC50 [1]: 0.025 µg/mL (≈ 0.0596 µM); MIC90 ([1]; 25 clinical strains S. epidermidis, 90% of strains, read-out: MIC90): 0.39 µg/mL (≈ 0.93 µM); MIC [21]: 0.025 µg/mL (≈ 0.0596 µM); MIC [22]: 0.1 µg/mL (≈ 0.238 µM) |
| CN1Cc2csc3c(C(=O)O)c(=O)c4cc(F)c(N5CCN6CCOC[C@H]6C5)c1c4n23 [Compound (F), 9,1-(Methylimino)methano-7-fluoro-8-[(6R)-1,8-diaza-4-oxabicyclo[4.4.0]deca-8-yl]-5-oxo-5H-thiazolo[3,2-a]quinoline-4-carboxylic acid] | 0.013 to 1.56 µg/mL (≈ 0.0292 to 3.51 µM) | 0.78 µg/mL (≈ 1.75 µM) | 0.013 µg/mL (≈ 0.0292 µM) | 0.025 µg/mL (≈ 0.0562 µM) | 0.025 µg/mL (≈ 0.0562 µM) | 0.013 µg/mL (≈ 0.0292 µM) | 0.013 µg/mL (≈ 0.0292 µM) | 0.025 µg/mL (≈ 0.0562 µM) | 0.013 µg/mL (≈ 0.0292 µM) | 0.39 µg/mL (≈ 0.877 µM) | 0.025 µg/mL (≈ 0.0562 µM) | 0.78 µg/mL (≈ 1.75 µM) | 0.025 µg/mL (≈ 0.0562 µM) | 0.05 µg/mL (≈ 0.112 µM) | 0.05 µg/mL (≈ 0.112 µM) | 0.013 µg/mL (≈ 0.0292 µM) | 0.05 µg/mL (≈ 0.112 µM) | 0.05 µg/mL (≈ 0.112 µM) | 0.78 µg/mL (≈ 1.75 µM) | 0.05 µg/mL (≈ 0.112 µM) | MIC90 [1]: 0.78 µg/mL (≈ 1.75 µM); MIC50 [1, 24]: 0.05 µg/mL (≈ 0.112 µM); MIC [21]: 0.05 µg/mL (≈ 0.112 µM); MIC [22]: 0.2 µg/mL (≈ 0.45 µM) |
| CN1Cc2csc3c(C(=O)O)c(=O)c4cc(F)c(N5CCN(C)C(CF)C5)c1c4n23 (stereo not drawn) [Compound (K), 9,1-(methylimino)methano-7-fluoro-8-(3-fluoromethyl-4-methyl-1-piperazinyl)-5-oxo-5H-thiazolo[3,2-a]quinoline-4-carboxylic acid hydrochloride] | 0.05 to 1.56 µg/mL | 0.78 µg/mL | 0.05 µg/mL | 0.05 µg/mL | 0.05 µg/mL | 0.05 µg/mL | 0.025 µg/mL | 0.05 µg/mL | 0.013 µg/mL | 0.2 µg/mL | 0.05 µg/mL | 0.2 µg/mL | 0.05 µg/mL | 0.05 µg/mL | 0.05 µg/mL | 0.013 µg/mL | 0.1 µg/mL | 0.1 µg/mL | 0.39 µg/mL | 0.1 µg/mL | MIC90 [1]: 0.78 µg/mL; MIC50 [1, 24]: 0.05 µg/mL; MIC [21]: 0.05 µg/mL; MIC [22]: 0.39 µg/mL |

Source: patent US5191079A, “Quinolinecarboxylic acid derivatives” (priority 1990, dated 1993)
